Experimental data from PMC9000336, “Development of Bicyclo[3.1.0]hexane-Based A3 Receptor Ligands: Closing the Gaps in the Structure–Affinity Relationships” (Molecules, 2022).

Assays:
[1] = biological target: T1, human adenosine A1 receptor (Homo sapiens, UniProt P30542); assay: Radioligand displacement assay, human adenosine A1 receptor ([3H]DPCPX, CHOhA1R membranes); format: binding; conditions: n = 3; for inhibition at 10 µM: test compound 10 µM; for A1 displacement at 1 µM: footnote a: test compound 1 µM
T1 construct: expressed in transfected cells; host or cells: CHO cells (CHOhA1R), gift of Prof; S. J. Hill; membrane preparation
T1 sequence (P30542 1-326): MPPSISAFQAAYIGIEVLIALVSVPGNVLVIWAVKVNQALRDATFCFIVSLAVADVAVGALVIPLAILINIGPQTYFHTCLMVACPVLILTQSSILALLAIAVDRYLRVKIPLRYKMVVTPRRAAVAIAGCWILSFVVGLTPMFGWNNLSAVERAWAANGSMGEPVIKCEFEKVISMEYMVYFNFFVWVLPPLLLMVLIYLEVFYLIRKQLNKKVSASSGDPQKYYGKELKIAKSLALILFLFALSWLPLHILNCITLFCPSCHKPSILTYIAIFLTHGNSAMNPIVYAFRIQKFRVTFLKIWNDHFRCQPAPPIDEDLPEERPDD
Protocol: (§1) Chinese hamster ovary (CHO) cells stably expressing the human adenosine A1 receptor (CHOhA1R) were kindly provided by Prof. S. J. Hill and CHO cells stably expressing the human adenosine A3 receptor (CHOhA3R) were a gift from Dr. K.-N. Klotz (University of Würzburg, Germany). Chinese hamster ovary cells stably expressing the human A1-receptor (CHOhA1R) or the human A3-receptor (CHOhA3R) were grown in Dulbecco’s Modified Eagle’s Medium (DMEM) and Ham’s F12 medium (1:1) supplemented with 10% (v/v) newborn calf serum, 50 µg/mL streptomycin, 50 IU/mL penicillin, and 200 µg/mL G418 at 37 °C and 5% CO2. […] All cells were grown to 80–90% confluency and detached from plates by scraping them into 5 mL phosphate-buffered saline. Detached cells were collected and centrifuged at 200 g for 5 min. Pellets derived from 100 15 cm Ø plates were pooled and resuspended in 70 mL of ice-cold 50 mM tris(hydroxymethyl)aminomethane (Tris)-HCl buffer, pH 7.4. A Heidolph Diax 900 homogenizer was used to homogenize the cell suspension. Membranes and the cytosolic fraction were separated by centrifugation at 100,000 g in a Beckman Optima LE-80 K ultracentrifuge (Beckman Coulter, Fullerton, CA, USA) at 4 °C for 20 min. The pellet was resuspended in 35 mL of the Tris-HCl buffer, and the homogenization and centrifugation steps were repeated. Tris-HCl buffer (25 mL) was used to resuspend the pellet, and adenosine deaminase (ADA) was added (0.8 U/mL) to break down endogenous adenosine. Membranes were stored in 250 µL and 500 µL aliquots at −80 °C. Total protein concentrations were measured using the bicinchoninic acid (BCA) method.
A1 Receptor: Membrane aliquots containing 5 µg (CHOhA1R) protein were incubated in a total volume of 100 µL assay buffer (50 mM Tris-HCl, pH 7.4) at 25 °C for 1 h. […] Nonspecific binding was determined in the presence of 100 µM N^6-cyclopentyladenosine (CPA). Incubations were terminated by rapid vacuum filtration to separate the bound and free radioligand through prewetted 96-well GF/B filter plates using a PerkinElmer Filtermate-harvester (Perkin Elmer, Groningen, the Netherlands). Filters were subsequently washed 12 times with ice-cold 50 mM Tris-HCl, pH 7.4.
(§2) The plates of all four adenosine receptor assays were dried at 55 °C after which MicroscintTM-20-cocktail was added (Perkin Elmer, Groningen, The Netherlands).
(§3) All experimental data were analyzed using the non-linear regression curve fitting program GraphPad Prism 7.0 (GraphPad Software Inc., San Diego, CA, USA). IC50 values obtained from competition displacement binding data were converted into Ki values using the Cheng–Prusoff equation.

[2] = biological target: T2, human adenosine A3 receptor (Homo sapiens, UniProt P0DMS8); assay: Radioligand displacement assay, human adenosine A3 receptor ([3H]PSB11, CHOhA3R membranes); format: binding; conditions: for inhibition at 10 µM: test compound 10 µM; for A3 displacement at 1 µM: footnote a: test compound 1 µM
T2 construct: expressed in transfected cells; host or cells: CHO cells (CHOhA3R), gift of Dr. K.-N. Klotz (University of Würzburg); membrane preparation
T2 sequence (P0DMS8 1-318): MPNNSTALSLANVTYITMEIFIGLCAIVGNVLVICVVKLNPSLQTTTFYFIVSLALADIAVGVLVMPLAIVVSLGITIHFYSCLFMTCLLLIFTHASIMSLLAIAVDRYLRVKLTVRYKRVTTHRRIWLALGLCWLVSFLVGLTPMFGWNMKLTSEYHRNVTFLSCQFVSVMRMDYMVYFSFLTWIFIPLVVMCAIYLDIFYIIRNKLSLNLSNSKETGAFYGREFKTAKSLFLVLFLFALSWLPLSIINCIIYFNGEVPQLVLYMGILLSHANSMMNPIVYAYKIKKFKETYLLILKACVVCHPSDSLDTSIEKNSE
Protocol: as §1
A3 Receptor: Membrane aliquots containing 15 µg (CHOhA3R) total protein were incubated in a total volume of 100 µL assay buffer (50 mM Tris-HCl, pH 8.0, supplemented with 10 mM MgCl2, 1 mM EDTA and 0.01% (w/v) CHAPS) at 25 °C for 2 h. Radioligand displacement experiments were performed using six concentrations of competing ligand in the presence of 10 nM [^3H]8-ethyl-4-methyl-2-phenyl-(8R)-4,5,7,8-tetrahydro-1H-imidazo[2.1-i]purin-5-one ([^3H]PSB11). […] Nonspecific binding was determined in the presence of 100 µM NECA. Incubations were terminated by rapid vacuum filtration to separate the bound and free radioligand through prewetted 96-well GF/B filter plates using a PerkinElmer Filtermate-harvester (Perkin Elmer, Groningen, The Netherlands). Filters were subsequently washed 12 times with ice-cold 50 mM Tris-HCl supplemented with 10 mM MgCl2, and 1 mM EDTA, pH 8.0 for CHOhA3R.
as §2, §3

inhibition at 10 µM [1] | potency at the A3 receptor [2] | inhibition at 10 µM ([2]; n = 3) | A1 displacement at 1 µM [1] | A3 displacement at 1 µM ([2]; n = 3) | Structure (SMILES) | further results
 |  |  |  |  | CSc1nc(N)c2ncn([C@H]3[C@H](O)[C@H](O)[C@]4(Cn5cc(CC(=O)O)nn5)C[C@H]34)c2n1 [Compound 45, 2-(1-{[(1R,2R,3S,4R,5S)-4-(6-Amino-2-methylthio-9H-purin-9-yl)-2,3-dihydroxybicyclo[3.1.0]hex-1-yl]methyl}-1H-1,2,3-triazol-4-yl)acetic acid] | Ki ([1]; footnote a: tested at 1 µM, read-out: A1 Ki (bound, footnote a)): > 1 µM; Ki ([2]; footnote a: tested at 1 µM, n = 3, read-out: A3 Ki (bound, footnote a)): > 1 µM
25% | not potent | 8% |  |  | OC[C@@]12C[C@@H]1[C@@H](n1cnc3c(N(Cc4ccccc4)Cc4ccccc4)ncnc31)[C@H](O)[C@@H]2O [Compound 26, (1R,2R,3S,4R,5S)-4-[6-(Dibenzylamino)-9H-purin-9-yl]-1-(hydroxymethyl)bicyclo[3.1.0]hexane-2,3-diol] | 
 |  |  | 3% ^a | 5% ^a | CCN(CC)CC.CSc1nc(N)c2ncn([C@H]3[C@H](O)[C@H](O)[C@]4(CNS(=O)(=O)CC(=O)O)C[C@H]34)c2n1 [Compound 48, Triethylammonium 2-(N-{[(1R,2R,3S,4R,5S)-4-(6-amino-2-methylthio-9H-purin-9-yl)-2,3-dihydroxybicyclo[3.1.0]hex-1-yl]methyl}sulfamoyl)acetate] | 
15% | not potent | 4% |  |  | OC[C@@]12C[C@@H]1[C@@H](n1cnc3c(N(Cc4ccccc4)Cc4ccccc4)nc(Cl)nc31)[C@H](O)[C@@H]2O [Compound 27, (1R,2R,3S,4R,5S)-4-[6-(Dibenzylamino)-2-chloro-9H-purin-9-yl]-1-(hydroxymethyl)bicyclo[3.1.0]hexane-2,3-diol] | 
 |  |  | 2% ^a | 3% ^a | COC(=O)Cc1cn(C[C@@]23C[C@@H]2[C@@H](n2cnc4c(N)nc(SC)nc42)[C@H](O)[C@@H]3O)nn1 [Compound 41, Methyl 2-(1-{[(1R,2R,3S,4R,5S)-4-(6-amino-2-methylthio-9H-purin-9-yl)-2,3-dihydroxybicyclo[3.1.0]hex-1-yl]methyl}-1H-1,2,3-triazol-4-yl)acetate] | 
